“And” between values parts separate entries of the source, which are not always exact repeats. Equal entries are not always repeated.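 Five compound concentrations were applied to cells in 96-well plates for 48 hours; endpoints were derived by simple linear interpolation of the resulting dose-response curve. GI50: concentration for 50% inhibition of growth. At the TGI there is no net growth.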
How the values were obtained:
Assay in all cases: DTP human tumour cell line panel, 48 h
[1] = test system: A549 NSCLC
[2] = test system: SN12C renal
[3] = test system: UO-31 renal
[4] = test system: SF-539 CNS
[5] = test system: NCI-H23 lung
[6] = test system: UACC-62 melanoma
[7] = test system: SK-MEL-5 melanoma
[8] = test system: PC-3 prostate
[9] = test system: SNB-78 CNS
[10] = test system: LXFL 529 NSCLC

COc1ccc2c(c1)nc(C(=O)c1ccco1)c(C(F)(F)F)[n+]2[O-]
GI50 [1]: > 100 µM
TGI [1]: > 100 µM
GI50 [2]: > 100 µM
TGI [2]: > 100 µM
GI50 [3]: > 100 µM
TGI [3]: > 100 µM
GI50 [4]: > 100 µM
TGI [4]: > 100 µM
GI50 [5]: > 100 µM
TGI [5]: > 100 µM
GI50 [6]: > 100 µM
TGI [6]: > 100 µM
GI50 [7]: > 100 µM
TGI [7]: > 100 µM
GI50 [8]: 77.4 µM
TGI [8]: > 100 µM

CCC(C)[C@H](NC(=O)Nc1cc(C(F)(F)F)cc(C(F)(F)F)c1)C(=O)N[C@@H](Cc1cn(C)cn1)C(=O)OC (some centres not stated)
GI50 [1]: 1.33 µM
TGI [1]: 1.85 µM
GI50 [2]: 0.544 µM
TGI [2]: 1.05 µM
GI50 [3]: 1.52 µM
TGI [3]: 2.31 µM
GI50 [4]: 1.32 µM
TGI [4]: 1.83 µM
GI50 [5]: 6.15 µM
GI50 [6]: 1.11 µM
TGI [6]: 1.86 µM
GI50 [7]: 0.59 µM
TGI [7]: 1.27 µM
GI50 [8]: 0.715 µM
TGI [8]: 1.77 µM

CC1(C)CNc2cc(NC(=O)c3cccnc3NCc3ccncc3)ccc21
GI50 [1]: 31.9 µM
TGI [1]: > 100 µM
GI50 [2]: 25.5 µM
TGI [2]: > 100 µM
GI50 [3]: 20 µM
TGI [3]: > 100 µM
GI50 [4]: 7.5 µM
TGI [4]: 58.9 µM
GI50 [5]: 27.6 µM
TGI [5]: > 100 µM
GI50 [6]: 12.9 µM
TGI [6]: 48.4 µM
GI50 [7]: 16 µM
TGI [7]: 30.8 µM
GI50 [8]: 25.4 µM
TGI [8]: > 100 µM

c1ccc(C2OC3(CCC[C@H]4C[C@H]43)O[C@H]2c2ccccc2)cc1 (some centres not stated)
TGI [1]: > 100 µM
TGI [2]: > 100 µM
TGI [9]: > 100 µM
TGI [3]: > 100 µM
TGI [4]: > 100 µM
TGI [5]: > 100 µM
TGI [6]: > 100 µM
TGI [7]: 65.7 µM

Cc1ccc(/C=N/Nc2nc(Nc3ccccc3)nc(-n3nc(C)cc3C)n2)cc1
GI50 [1]: 4.19 µM
TGI [1]: 35.7 µM
GI50 [2]: 3.11 µM
TGI [2]: 92.4 µM
GI50 [3]: 4.09 µM
TGI [3]: 19.7 µM
GI50 [4]: 4.5 µM
TGI [4]: 25.1 µM
GI50 [5]: 5.41 µM
TGI [5]: 24.3 µM
GI50 [6]: 4.44 µM
TGI [6]: 24.2 µM
GI50 [7]: 1.77 µM
TGI [7]: 7.44 µM
GI50 [8]: 2.67 µM
TGI [8]: 23.6 µM

CNC(=O)c1cc(Oc2ccc(NC(=O)Nc3ccc(Cl)c(C(F)(F)F)c3)c(F)c2)ccn1
GI50 [1]: 2.39 µM and 2.64 µM
TGI [1]: > 24.1 µM
GI50 [2]: 2.35 µM and 2.24 µM
TGI [2]: 12.1 µM and > 10 µM
GI50 [3]: 1.53 µM and 1.82 µM
TGI [3]: 4.22 µM and > 10 µM
GI50 [4]: 2.15 µM and 1.45 µM
TGI [4]: 10.7 µM and > 10 µM
GI50 [5]: 1.42 µM and 1.44 µM
TGI [5]: 6.29 µM and 7.14 µM
GI50 [6]: 0.98 µM
TGI [6]: 4.73 µM
GI50 [7]: 1.5 µM and 1.35 µM
TGI [7]: 2.94 µM and 3.16 µM
GI50 [8]: 2.82 µM and 2.7 µM
TGI [8]: > 64.6 µM

CC(=O)[O-].Cn1ccnc1CNCc1nccn1C.[Cu+2].[O-][Cl+3]([O-])([O-])[O-]
GI50 [1]: > 100 µM
TGI [1]: > 100 µM
GI50 [2]: > 100 µM
TGI [2]: > 100 µM
GI50 [9]: > 100 µM
TGI [9]: > 100 µM
GI50 [4]: > 100 µM
TGI [4]: > 100 µM
GI50 [5]: > 100 µM
TGI [5]: > 100 µM
GI50 [6]: 26.9 µM
TGI [6]: > 100 µM
GI50 [7]: > 100 µM
TGI [7]: > 100 µM
GI50 [10]: > 100 µM
TGI [10]: > 100 µM

COC(=O)C1=C(O)[C@H](C(=O)OC)C2(O)C(C(=O)OC)[C@H](c3ccc(OC(=O)C(C)c4ccc(CC(C)C)cc4)cc3)C[C@@H]1[C@@H]2C(=O)OC (some centres not stated)
GI50 [1]: 26.8 µM
TGI [1]: > 50 µM
GI50 [2]: 9.58 µM
TGI [2]: 22.9 µM
GI50 [3]: 12.3 µM
TGI [3]: > 50 µM
GI50 [4]: 1.4 µM
TGI [4]: 8.05 µM
GI50 [5]: 11.1 µM
TGI [5]: 24.9 µM
GI50 [6]: 9.41 µM
TGI [6]: 22.4 µM
GI50 [7]: 15 µM
TGI [7]: > 50 µM
GI50 [8]: 35 µM
TGI [8]: > 50 µM

COc1cc(/C=N/Nc2ncnc3c2cnn3-c2ccccc2)ccc1O
GI50 [1]: > 20.5 µM
TGI [1]: > 25 µM
GI50 [2]: > 25 µM
TGI [2]: > 25 µM
TGI [3]: > 25 µM
GI50 [4]: 8.84 µM
TGI [4]: > 25 µM
GI50 [5]: > 25 µM
TGI [5]: > 25 µM
GI50 [6]: 15.6 µM
TGI [6]: > 25 µM
GI50 [7]: 12.6 µM
TGI [7]: > 25 µM
GI50 [8]: 5.24 µM
TGI [8]: > 25 µM

COc1ccc2c(c1)[nH]c(=O)c1c3cccc(F)c3cn21
GI50 [1]: 0.0667 µM
TGI [1]: > 100 µM
GI50 [2]: 0.0828 µM
TGI [2]: 24.4 µM
GI50 [3]: 0.0596 µM
TGI [3]: > 70.6 µM
GI50 [4]: 0.0522 µM
TGI [4]: 0.455 µM
GI50 [5]: 0.21 µM
TGI [5]: > 52.3 µM
GI50 [6]: 0.0379 µM
TGI [6]: > 100 µM
GI50 [7]: 0.0449 µM
TGI [7]: > 100 µM
GI50 [8]: 0.0345 µM
TGI [8]: > 31.9 µM

O=C1C(c2ccc(Br)cc2)=[N+]([O-])c2ccccc21
TGI [1]: 41.2 µM
TGI [2]: 29.6 µM
TGI [3]: 38.7 µM
TGI [4]: 34.7 µM
TGI [5]: 30.4 µM
TGI [6]: 29.7 µM
TGI [7]: 21.6 µM
TGI [10]: 18.8 µM

Cc1cc2c(C)n(Cc3ccccc3Cl)nc2c(C(=O)O)c1C
TGI [1]: > 100 µM
TGI [2]: > 100 µM
TGI [9]: > 100 µM
TGI [3]: > 100 µM
TGI [4]: > 100 µM
TGI [5]: > 100 µM
TGI [6]: > 100 µM
TGI [10]: > 100 µM

Cc1cc2c(cc1Cl)S/C(=C/C(=O)O)C(Nc1ccc3ncsc3c1)=NS2(=O)=O
GI50 [1]: > 25 µM
TGI [1]: > 62 µM
GI50 [2]: 16.5 µM
TGI [2]: > 64.8 µM
GI50 [3]: 14.8 µM
TGI [3]: > 50.7 µM
GI50 [4]: 9.66 µM
TGI [4]: > 34.6 µM
GI50 [5]: > 14.3 µM
TGI [5]: > 22.5 µM
GI50 [6]: 33.5 µM
TGI [6]: > 57.7 µM
GI50 [7]: > 14.6 µM
TGI [7]: > 24 µM
GI50 [8]: 14.2 µM
TGI [8]: > 49.4 µM

O=C(CCCN1CCC(O)(c2ccc(Cl)cc2)CC1)c1ccc(F)cc1
TGI [1]: > 100 µM
TGI [2]: > 100 µM
TGI [3]: 45.8 µM
TGI [4]: 60.3 µM
TGI [5]: 84.1 µM
TGI [6]: 21.4 µM
TGI [7]: 29.7 µM
TGI [8]: > 100 µM

COc1ccc2c(c1)c(-c1nc(-c3c[nH]c4ccncc34)cs1)cn2C
GI50 [1]: 1.87 µM
TGI [1]: 3.46 µM
GI50 [2]: 1.69 µM
TGI [2]: 3.24 µM
GI50 [3]: 1.58 µM
TGI [3]: 2.97 µM
GI50 [4]: 1.65 µM
TGI [4]: 3.09 µM
GI50 [5]: 1.82 µM
TGI [5]: 3.39 µM
GI50 [6]: 1.82 µM
TGI [6]: 3.35 µM
GI50 [7]: 1.65 µM
TGI [7]: 3.02 µM
GI50 [8]: 1.6 µM
TGI [8]: 3.06 µM

CC1=C(SCCC(=O)OC(C[Se]C2=C(C)C(=O)c3ccccc3C2=O)C(=O)NCCCCCC(=O)OCc2ccccc2)C(=O)c2ccccc2C1=O (configuration not stated)
GI50 [1]: 3.95 µM
TGI [1]: 11.4 µM
GI50 [2]: 4.63 µM
TGI [2]: 16.7 µM
GI50 [3]: 2.51 µM
TGI [3]: 15.3 µM
GI50 [4]: 4.49 µM
TGI [4]: 15.3 µM
GI50 [5]: 2.76 µM
TGI [5]: 7.84 µM
GI50 [6]: 8.04 µM
TGI [6]: 20.9 µM
GI50 [7]: 3.81 µM
TGI [7]: 14.9 µM
GI50 [8]: 2.55 µM
TGI [8]: 9.13 µM
